Marks after values point to notes of the source that are not given here.

In data set [1] the test system is formaldehyde-induced arthritis. As to the kind of experiment: formaldehyde-induced acute arthritis, paw edema. It counts as in vivo, rat. To be noted: dose 30 mg/kg; given 24 hours before formalin and continued for 13 days; mean ± S.E.M., six rats. As for the experimental part:
Formaldehyde-induced arthritis was produced in rats by injecting 0.1 ml of 2% formaldehyde in the hind paw under the planter aponeurosis. Paw volume was measured daily for 13 days. The test composition was given 24 hours before formalin injection and continued for 13 days.

Data set [2] deals with stomach. The note with it: known side effect of the drug; cited from earlier work.
The test system of data set [3] is formalin arthritis and granuloma pouch. To be noted: cited from earlier work.

On to `CC(C)Cc1ccc(C(C)C(=O)O)cc1` (stereo not shown) [Ibuprofen], for which the “% Edema (Swelling)” value in data set [1] is 27.80 ± 4.2^b %. The “ulcer in the stomach” value in data set [2] was “causes ulcer in the stomach”.

In the case of `C[C@H]1C[C@H]2[C@@H]3CCC4=CC(=O)C=C[C@]4(C)[C@@]3(F)[C@@H](O)C[C@]2(C)[C@@]1(O)C(=O)CO` [betamethasone], the mortality rate in data set [3] (albino rats) is 12 out of 29. Further, the “gastric side effects-ulcer and bleeding” value in data set [3] (rats) is recorded as 10 out of 12.

Values taken from US7618663B2, “Anti-arthritic herbal composition and method thereof” (priority 2004, dated 2009).
